Activity calls are given as the source filed them. No cut-off for these calls is given here.
How the values were obtained:
hERG (KCNH2) = hERG (KCNH2) (Homo sapiens, UniProt Q12809); experiment: Inhibition of hERG expressed in HEK293 cells at 20 uM by whole cell patch clamp analysis; format: toxicity, cell-based; conditions: HEK293 cells expressing hERG
[1] = molecular target: Mast/stem cell growth factor receptor Kit (Homo sapiens, UniProt P10721); experiment: Inhibition of c-KIT (unknown origin) using peptide substrate TK-S and ATP as substrate incubated for 1 hr by HTRF assay; format: toxicity
[2] = Selectivity ratio of IC50 for inhibition of c-KIT (unknown origin) to IC50 for inhibition of FLT3 D835Y mutant (unknown origin)
BaF3 = experiment: Antiproliferative activity against mouse BaF3 cells harboring FLT3 F691L mutant assessed as reduction in cell viability incubated for 72 hrs by CellTiter 96 Aqueous One Solution Cell Proliferation Assay; format: functional, cell-based
[3] = Half life in ICR mouse at 10 mg/kg, po; format: ADME, organism-based; conditions: in vivo
[4] = Tmax in ICR mouse at 10 mg/kg, po; format: ADME, organism-based; conditions: in vivo
[5] = AUC (infinity) in ICR mouse at 10 mg/kg, po; format: ADME, organism-based; design: dose 10 mg/kg, route po; conditions: in vivo
[6] = MRT (infinity) in ICR mouse at 10 mg/kg, po; format: ADME, organism-based; conditions: in vivo
[7] = molecular target: Receptor-type tyrosine-protein kinase FLT3 (Homo sapiens, UniProt P36888, ITD); experiment: Inhibition of FLT3 ITD mutant (unknown origin) by HTRF assay
AMPK alpha2/beta1/gamma1 = AMPK alpha2/beta1/gamma1 (Homo sapiens, UniProt P54619+P54646+Q9Y478); experiment: Inhibition of AMPK alpha2beta1gamma1 (unknown origin) by HTRF assay; format: protein-complex assay
[8] = Selectivity ratio of IC50 for EPHA1 (unknown origin) to IC50 for FLT3-ITD mutant (unknown origin)
[9] = Selectivity ratio of IC50 for HCK (unknown origin) to IC50 for FLT3-ITD mutant (unknown origin)
[10] = Selectivity ratio of IC50 for BLK (unknown origin) to IC50 for FLT3-ITD mutant (unknown origin)
[11] = Selectivity ratio of IC50 for P70S6K (unknown origin) to IC50 for FLT3-ITD mutant (unknown origin)
[12] = Selectivity ratio of IC50 for Aurora kinase A (unknown origin) to IC50 for FLT3-ITD mutant (unknown origin)
[13] = Selectivity ratio of IC50 for CDK1 (unknown origin) to IC50 for FLT3-ITD mutant (unknown origin)
Z-138 = experiment: Antiproliferative activity against human Z138 cells assessed as reduction in cell viability incubated for 72 hrs by CellTiter 96 Aqueous One Solution Cell Proliferation Assay; format: functional, cell-based; conditions: Z-138, 72 h
[14] = molecular target: T1, Voltage-gated inwardly rectifying potassium channel KCNH2 (Homo sapiens, UniProt Q12809); experiment: Inhibition of hERG expressed in HEK293 cells assessed as inhibition of tail current at 1 to 10 uM by whole cell patch clamp analysis; format: toxicity, cell-based; conditions: hek293, 10 µM, dose 1-10 µM
[15] = molecular target: T1, Voltage-gated inwardly rectifying potassium channel KCNH2; experiment: Inhibition of hERG expressed in HEK293 cells assessed as inhibition of channel current amplitude at 100 uM by whole cell patch clamp analysis; format: toxicity, cell-based; conditions: hek293, 100 µM
[16] = molecular target: T1, Voltage-gated inwardly rectifying potassium channel KCNH2; experiment: Inhibition of hERG expressed in HEK293 cells assessed as inhibition of channel current amplitude by whole cell patch clamp analysis; format: toxicity, cell-based
[17] = molecular target: T2, Serine/threonine-protein kinase Chk1 (Homo sapiens) (UniProt O14757); experiment: Inhibition of CHK1 in human MV4-11 cells assessed as increase in CHK1 phosphorylation at Ser345 residue at 50 to 200 nM measured after 90 mins by western blot analysis; format: cell-based; conditions: dose 50-200 nM
T2 sequence (whole entry): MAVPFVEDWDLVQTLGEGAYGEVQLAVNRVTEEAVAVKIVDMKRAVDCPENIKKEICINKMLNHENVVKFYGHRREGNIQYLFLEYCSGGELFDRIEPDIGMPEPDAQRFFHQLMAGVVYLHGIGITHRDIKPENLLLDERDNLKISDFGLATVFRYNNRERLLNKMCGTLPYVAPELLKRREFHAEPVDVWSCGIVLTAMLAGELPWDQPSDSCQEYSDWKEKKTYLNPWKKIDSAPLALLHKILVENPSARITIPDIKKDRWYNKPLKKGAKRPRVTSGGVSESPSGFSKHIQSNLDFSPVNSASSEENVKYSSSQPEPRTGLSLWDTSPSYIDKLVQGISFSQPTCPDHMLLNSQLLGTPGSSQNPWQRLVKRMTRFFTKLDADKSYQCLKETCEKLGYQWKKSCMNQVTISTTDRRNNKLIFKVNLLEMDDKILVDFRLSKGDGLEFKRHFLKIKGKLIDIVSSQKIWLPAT

[18] = molecular target: T2, Serine/threonine-protein kinase Chk1 (Homo sapiens); experiment: Inhibition of CHK1 in human MV4-11 cells assessed as downregulation of c-Myc protein expression at 50 to 200 nM measured after 90 mins by western blot analysis; format: cell-based; conditions: dose 50-200 nM
[19] = molecular target: T2, Serine/threonine-protein kinase Chk1 (Homo sapiens); experiment: Inhibition of CHK1 in human MV4-11 cells assessed as upregulation of p53 protein expression measured after 90 mins by western blot analysis; format: cell-based; conditions: dose 50-200 nM
MV4-11 [20] = experiment: Antitumor activity against human MV4-11 cells xenografted in nu/nu mouse assessed as inhibition of tumor growth administered orally qd for 22 days; format: functional; conditions: dose 1-3 mg/kg, route po, time 22.0 day
MV4-11 [21] = experiment: Antitumor activity against human MV4-11 cells xenografted in nu/nu mouse assessed as inhibition of tumor growth rate at 3 mg/kg, po qd for 22 days; format: functional; conditions: MV4-11, 528 h, time 22 day
MV4-11 [22] = experiment: Antitumor activity against human MV4-11 cells xenografted in nu/nu mouse assessed as reduction in tumor weight at 3 mg/kg, po qd for 22 days; format: functional, organism-based; conditions: time 22.0 day
[23] = Toxicity against nu/nu mouse xenografted with human MV4-11 cells assessed as body weight changes at 1 to 3 mg/kg, po qd for 22 days; format: organism-based; conditions: in vivo, 528 h, dose 1-3 mg/kg, time 22 day
MOLM-13 = experiment: Antitumor activity against human MOLM-13 cells xenografted in NSG mouse assessed as prolongation of animal's survival at 15 mg/kg, po qd for 26 days; format: functional, organism-based; conditions: time 26.0 day
[24] = Toxicity against NSG mouse xenografted with human MOLM-13 cells assessed as body weight loss at 15 to 30 mg/kg, po qd for 26 days; format: organism-based; conditions: in vivo, 624 h, dose 15-30 mg/kg, time 26 day
[25] = Acute toxicity in ICR mouse assessed as animal's death at 300 mg/kg, ig and measured for 7 days; format: organism-based; conditions: in vivo, po, 168 h, time 7 day
[26] = Acute toxicity in ICR mouse assessed as morphological changes in liver at 300 mg/kg, ig and measured for 7 days by Hematoxylin-Eosin staining based analysis; format: organism-based; conditions: in vivo, po, 168 h, time 7 day
[27] = Acute toxicity in ICR mouse assessed as morphological changes in lungs at 300 mg/kg, ig and measured for 7 days by Hematoxylin-Eosin staining based analysis; format: organism-based; conditions: in vivo, po, 168 h, time 7 day
[28] = molecular target: Receptor-type tyrosine-protein kinase FLT3 (Homo sapiens, UniProt P36888, D835Y)
Description: Inhibition of FLT3 D835Y mutant (unknown origin) using peptide substrate TK-S and ATP as substrate incubated for 1 hr by HTRF assay

T1 sequence (Q12809 whole entry): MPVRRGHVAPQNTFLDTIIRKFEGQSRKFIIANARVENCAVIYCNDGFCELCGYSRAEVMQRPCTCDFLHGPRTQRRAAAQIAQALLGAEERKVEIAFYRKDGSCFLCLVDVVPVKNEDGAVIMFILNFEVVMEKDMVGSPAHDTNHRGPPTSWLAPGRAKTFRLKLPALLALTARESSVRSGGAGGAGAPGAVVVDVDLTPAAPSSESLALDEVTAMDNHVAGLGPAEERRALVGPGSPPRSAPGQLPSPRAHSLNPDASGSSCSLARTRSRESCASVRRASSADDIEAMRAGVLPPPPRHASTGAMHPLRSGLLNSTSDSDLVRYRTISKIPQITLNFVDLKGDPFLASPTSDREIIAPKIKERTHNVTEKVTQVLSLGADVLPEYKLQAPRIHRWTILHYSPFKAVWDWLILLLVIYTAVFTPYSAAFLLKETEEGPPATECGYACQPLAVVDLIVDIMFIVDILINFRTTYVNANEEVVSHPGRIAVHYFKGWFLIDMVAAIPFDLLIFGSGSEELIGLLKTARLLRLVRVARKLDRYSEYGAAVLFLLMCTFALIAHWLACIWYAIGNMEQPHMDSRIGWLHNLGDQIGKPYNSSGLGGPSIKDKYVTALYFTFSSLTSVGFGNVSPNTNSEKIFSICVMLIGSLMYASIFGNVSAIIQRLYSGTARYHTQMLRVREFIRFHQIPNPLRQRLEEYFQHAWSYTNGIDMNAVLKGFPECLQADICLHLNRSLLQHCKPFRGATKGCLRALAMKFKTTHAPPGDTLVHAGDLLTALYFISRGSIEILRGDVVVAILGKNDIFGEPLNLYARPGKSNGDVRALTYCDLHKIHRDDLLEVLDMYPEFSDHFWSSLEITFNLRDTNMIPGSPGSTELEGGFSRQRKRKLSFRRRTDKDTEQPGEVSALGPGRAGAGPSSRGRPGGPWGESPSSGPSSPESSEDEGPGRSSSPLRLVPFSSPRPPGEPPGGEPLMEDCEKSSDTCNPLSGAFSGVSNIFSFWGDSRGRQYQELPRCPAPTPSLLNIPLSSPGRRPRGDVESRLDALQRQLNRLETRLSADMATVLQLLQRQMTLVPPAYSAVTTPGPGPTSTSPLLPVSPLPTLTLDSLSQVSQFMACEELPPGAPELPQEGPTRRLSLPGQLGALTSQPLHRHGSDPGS
hERG (KCNH2), sequence (Q12809 whole entry): as above
AMPK alpha2/beta1/gamma1, sequence (P54646 whole entry): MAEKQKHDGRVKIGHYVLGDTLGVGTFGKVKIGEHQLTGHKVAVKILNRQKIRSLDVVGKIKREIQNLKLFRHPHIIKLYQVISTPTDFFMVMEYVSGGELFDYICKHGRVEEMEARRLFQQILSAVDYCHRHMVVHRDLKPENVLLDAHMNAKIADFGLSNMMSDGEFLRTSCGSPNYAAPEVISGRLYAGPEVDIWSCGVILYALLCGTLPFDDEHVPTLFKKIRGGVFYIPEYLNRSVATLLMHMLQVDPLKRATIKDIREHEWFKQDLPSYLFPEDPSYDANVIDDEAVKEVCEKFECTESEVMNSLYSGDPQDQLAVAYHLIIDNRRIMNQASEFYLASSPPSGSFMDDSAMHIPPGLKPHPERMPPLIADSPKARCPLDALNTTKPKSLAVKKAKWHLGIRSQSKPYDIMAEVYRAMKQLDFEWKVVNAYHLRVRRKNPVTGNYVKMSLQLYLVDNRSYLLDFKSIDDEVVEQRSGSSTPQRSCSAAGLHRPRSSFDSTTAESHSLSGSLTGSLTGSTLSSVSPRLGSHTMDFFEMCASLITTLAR
AMPK alpha2/beta1/gamma1, sequence (P54619 whole entry): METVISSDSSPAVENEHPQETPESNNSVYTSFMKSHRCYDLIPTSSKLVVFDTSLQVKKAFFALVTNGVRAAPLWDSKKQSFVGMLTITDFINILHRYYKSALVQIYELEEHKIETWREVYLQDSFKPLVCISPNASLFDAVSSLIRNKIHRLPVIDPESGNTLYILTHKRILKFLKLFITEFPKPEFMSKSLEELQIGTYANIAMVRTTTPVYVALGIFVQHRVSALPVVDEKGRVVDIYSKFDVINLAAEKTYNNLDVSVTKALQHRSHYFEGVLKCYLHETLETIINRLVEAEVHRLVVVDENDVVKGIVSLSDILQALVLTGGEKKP
AMPK alpha2/beta1/gamma1, sequence (Q9Y478 whole entry): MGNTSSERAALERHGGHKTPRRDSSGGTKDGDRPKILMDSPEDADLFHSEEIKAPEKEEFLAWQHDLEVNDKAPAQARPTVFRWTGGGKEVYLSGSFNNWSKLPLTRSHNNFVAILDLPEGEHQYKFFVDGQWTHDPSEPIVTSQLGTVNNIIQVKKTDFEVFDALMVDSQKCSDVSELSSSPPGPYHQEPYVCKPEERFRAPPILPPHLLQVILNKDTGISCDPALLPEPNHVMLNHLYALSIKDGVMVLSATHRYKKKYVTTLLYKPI
Mast/stem cell growth factor receptor Kit, sequence (P10721 whole entry): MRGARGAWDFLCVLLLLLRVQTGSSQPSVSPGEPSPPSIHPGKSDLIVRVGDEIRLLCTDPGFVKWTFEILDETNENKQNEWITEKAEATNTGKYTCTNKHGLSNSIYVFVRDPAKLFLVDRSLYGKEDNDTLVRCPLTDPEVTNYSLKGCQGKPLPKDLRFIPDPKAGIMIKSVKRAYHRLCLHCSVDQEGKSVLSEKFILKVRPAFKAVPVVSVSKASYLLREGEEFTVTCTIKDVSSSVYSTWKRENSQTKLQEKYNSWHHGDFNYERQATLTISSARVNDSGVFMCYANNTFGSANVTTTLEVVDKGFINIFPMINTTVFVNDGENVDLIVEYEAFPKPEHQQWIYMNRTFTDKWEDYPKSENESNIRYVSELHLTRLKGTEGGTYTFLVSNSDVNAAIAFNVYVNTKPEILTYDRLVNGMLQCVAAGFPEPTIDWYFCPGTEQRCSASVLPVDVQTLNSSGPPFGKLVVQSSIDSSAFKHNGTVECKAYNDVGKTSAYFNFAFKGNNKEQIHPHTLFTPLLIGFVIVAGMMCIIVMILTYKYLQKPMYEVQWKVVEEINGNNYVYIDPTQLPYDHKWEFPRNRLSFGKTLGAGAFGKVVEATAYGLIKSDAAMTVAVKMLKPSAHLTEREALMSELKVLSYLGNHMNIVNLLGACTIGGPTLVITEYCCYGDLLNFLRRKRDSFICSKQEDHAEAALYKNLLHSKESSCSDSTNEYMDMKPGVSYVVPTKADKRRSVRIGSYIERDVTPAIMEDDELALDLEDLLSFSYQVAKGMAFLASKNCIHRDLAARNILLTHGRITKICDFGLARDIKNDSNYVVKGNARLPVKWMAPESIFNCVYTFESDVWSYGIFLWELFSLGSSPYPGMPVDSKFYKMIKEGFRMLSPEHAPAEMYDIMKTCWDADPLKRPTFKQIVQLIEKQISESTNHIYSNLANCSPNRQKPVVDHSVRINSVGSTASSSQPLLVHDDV

Work on `CC(C)(O)CC(=O)N1CCc2cc(Nc3ncc(C(F)(F)F)c(N[C@H]4CC[C@@H](N)CC4)n3)ccc2C1` yielded an inhibition at 20 µM (hERG (KCNH2)) of 2.37%, an IC50 [1] of 1.87 µM and a Ratio IC50 [2] of 1740. The Activity (BaF3) was “Active”, the half-life [3] was 5.6 h and the Tmax [4] was 2 h. The AUC(0-inf) [5] was 1660 ng·h/mL, the MRT inf [6] was 5.73 h and the IC50 [7] was less than 0.01 µM. It also gave an IC50 (AMPK alpha2/beta1/gamma1) of 0.0184 µM, a Ratio IC50 [8] greater than 100 and a Ratio IC50 [9] greater than 100. The Ratio IC50 [10] was greater than 100, the Ratio IC50 [11] was greater than 100 and the Ratio IC50 [12] was greater than 100. For the same molecule, the Ratio IC50 [13] was greater than 100, the IC50 (Z-138) was 0.115 µM and the “inhibition (INH)” value [14] was “Not Active”. The “inhibition (INH)” value [15] was “Active”, the IC50 [16] was 58.4 µM and the inhibition [17] was “Active”. The inhibition [18] was “Active”, the inhibition [19] was “Dose-Dependent Effect” and the Activity (MV4-11 [20]) was “Dose-Dependent Effect”. For the same molecule, the inhibition in vivo at 3 mg/kg (MV4-11 [21]) was 52.8%, the Activity (MV4-11 [22]) was “Active” and the Activity [23] was “Non-Toxic”. The Activity (MOLM-13) was “inactive”, the Activity [24] was “Non-Toxic” and the Activity [25] was “Non-Toxic”. The Activity [26] was “Non-Toxic”, the Activity [27] was “Non-Toxic” and the IC50 [28] was 0.00108 µM.

Reference: ChEMBL document CHEMBL5321272 (J Med Chem, 2023)
